pKi: −log10 of the molar value. Where two headings read alike, the source gives them in different places.
How the values were obtained:
[1] = system: EC1010 CMY-6; assay: Aztreonam potentiation (MPC@4), strain EC1010 CMY-6; conditions: minimum BLI concentration inhibiting growth with aztreonam 4 μg/mL; tested up to 40 μg/mL
[2] = system: AB1054 OXA-23; assay: Meropenem potentiation (MPC@8), strain AB1054 OXA-23; type: cell-based, Acinetobacter baumannii; conditions: minimum BLI concentration inhibiting growth with meropenem 8 μg/mL; tested up to 20 μg/mL
[3] = system: KP1004 KPC-2; assay: Aztreonam potentiation (MPC@4), strain KP1004 KPC-2; conditions: minimum BLI concentration inhibiting growth with aztreonam 4 μg/mL; tested up to 40 μg/mL
[4] = system: ECL1002; assay: Aztreonam potentiation (MPC@4), strain ECL1002; conditions: minimum BLI concentration inhibiting growth with aztreonam 4 μg/mL; tested up to 40 μg/mL
[5] = system: ec302 TEM-10; assay: Aztreonam potentiation (MPC@4), strain ec302 TEM-10; conditions: minimum BLI concentration inhibiting growth with aztreonam 4 μg/mL; tested up to 40 μg/mL
[6] = system: KP1009 CTX-M-15; assay: Aztreonam potentiation (MPC@4), strain KP1009 CTX-M-15; conditions: minimum BLI concentration inhibiting growth with aztreonam 4 μg/mL; tested up to 40 μg/mL
[7] = system: ec308 SHV-5; assay: Aztreonam potentiation (MPC@4), strain ec308 SHV-5; conditions: minimum BLI concentration inhibiting growth with aztreonam 4 μg/mL; tested up to 40 μg/mL
[8] = system: KP1005 CTX-M-14; assay: Tigemonam potentiation (MPC@4), strain KP1005 CTX-M-14; conditions: minimum BLI concentration inhibiting growth with tigemonam 4 μg/mL; tested up to 40 μg/mL
[9] = system: AB1053 OXA-72; assay: Meropenem potentiation (MPC@8), strain AB1053 OXA-72; type: cell-based, Acinetobacter baumannii; conditions: minimum BLI concentration inhibiting growth with meropenem 8 μg/mL; tested up to 20 μg/mL
[10] = system: KP1004 KPC-2; assay: Biapenem potentiation (MPC@1), strain KP1004 KPC-2; type: cell-based; conditions: minimum BLI concentration inhibiting growth with biapenem 1 μg/mL; tested up to 40 μg/mL
Experimental: (§1) Biapenem was present in the test medium at 1 μg/mL. […] Table 3 summarizes the BLI potency of biapenem potentiation (MPC@1) for two strains overexpressing class A (KPC) and class D (OXA-48) carbapenemases. Biapenem MIC for each strain is also shown.

[11] = system: KP1086 OXA-48; assay: Biapenem potentiation (MPC@1), strain KP1086 OXA-48; type: cell-based; conditions: minimum BLI concentration inhibiting growth with biapenem 1 μg/mL; tested up to 40 μg/mL
Experimental: as §1

[12] = system: KP1010 SHV-12; assay: Aztreonam potentiation (MPC@4), strain KP1010 SHV-12; conditions: minimum BLI concentration inhibiting growth with aztreonam 4 μg/mL; tested up to 40 μg/mL
[13] = molecular target: T1, purified class A, C and D enzymes (β-lactamases) (Pseudomonas aeruginosa, UniProt P24735); assay: biochemical; type: biochemical
T1 construct: rows headed: Ki (Pa-AmpC, NCF), uM; other: purified Pa-AmpC; nitrocefin (NCF) as reporter substrate

[14] = molecular target: purified class A, C and D enzymes (β-lactamases) (Enterobacter cloacae, UniProt P05364); assay: biochemical; type: biochemical
[15] = molecular target: purified class A, C and D enzymes (β-lactamases) (Escherichia coli, UniProt Q9L5C7); assay: biochemical; type: biochemical; conditions: purified CTX-M-14; nitrocefin (NCF) as reporter substrate
[16] = molecular target: T2, purified class A, C and D enzymes (β-lactamases) (Acinetobacter baumannii, UniProt Q9L4P2); assay: biochemical; type: biochemical; conditions: purified OXA-23; nitrocefin (NCF) as reporter substrate
T2 construct: rows headed: Ki (OXA-23, NCF), uM; other: purified OXA-23; nitrocefin (NCF) as reporter substrate

[17] = molecular target: purified class A, C and D enzymes (β-lactamases) (Klebsiella pneumoniae, UniProt Q9F663); assay: biochemical; type: biochemical; conditions: purified KPC-2; nitrocefin (NCF) as reporter substrate
[18] = molecular target: purified class A, C and D enzymes (β-lactamases) (Klebsiella pneumoniae, UniProt Q6XEC0); assay: biochemical; type: biochemical; conditions: purified OXA-48; nitrocefin (NCF) as reporter substrate

T2 sequence (Q9L4P2 whole entry): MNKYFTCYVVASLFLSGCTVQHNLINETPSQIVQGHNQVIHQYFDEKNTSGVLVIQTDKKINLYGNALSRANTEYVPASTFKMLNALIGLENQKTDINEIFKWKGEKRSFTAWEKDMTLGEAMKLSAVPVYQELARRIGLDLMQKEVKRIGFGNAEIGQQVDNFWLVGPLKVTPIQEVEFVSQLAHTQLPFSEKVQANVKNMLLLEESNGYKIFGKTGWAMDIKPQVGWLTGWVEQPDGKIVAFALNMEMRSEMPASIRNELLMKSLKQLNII
purified class A, C and D enzymes (β-lactamases) (Enterobacter cloacae, UniProt P05364), sequence (P05364 21-381): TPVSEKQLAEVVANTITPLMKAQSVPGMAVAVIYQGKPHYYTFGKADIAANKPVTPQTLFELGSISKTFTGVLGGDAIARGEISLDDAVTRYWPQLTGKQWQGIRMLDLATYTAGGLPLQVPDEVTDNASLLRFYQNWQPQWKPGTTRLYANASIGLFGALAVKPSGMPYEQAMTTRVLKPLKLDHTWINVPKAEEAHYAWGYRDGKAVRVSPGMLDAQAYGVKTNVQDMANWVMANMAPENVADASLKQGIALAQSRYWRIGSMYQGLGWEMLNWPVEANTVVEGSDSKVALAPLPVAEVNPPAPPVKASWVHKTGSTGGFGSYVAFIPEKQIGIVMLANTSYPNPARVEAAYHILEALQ
purified class A, C and D enzymes (β-lactamases) (Escherichia coli, UniProt Q9L5C7), sequence (Q9L5C7 entry or part of it): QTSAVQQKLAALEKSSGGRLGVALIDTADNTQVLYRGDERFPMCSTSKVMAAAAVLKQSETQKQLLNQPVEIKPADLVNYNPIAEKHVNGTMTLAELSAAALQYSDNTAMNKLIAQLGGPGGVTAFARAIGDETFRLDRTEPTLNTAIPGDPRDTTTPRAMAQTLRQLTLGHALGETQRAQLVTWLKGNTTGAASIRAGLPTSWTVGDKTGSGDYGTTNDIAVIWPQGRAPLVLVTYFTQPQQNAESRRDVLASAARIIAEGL
T1 sequence (P24735 whole entry): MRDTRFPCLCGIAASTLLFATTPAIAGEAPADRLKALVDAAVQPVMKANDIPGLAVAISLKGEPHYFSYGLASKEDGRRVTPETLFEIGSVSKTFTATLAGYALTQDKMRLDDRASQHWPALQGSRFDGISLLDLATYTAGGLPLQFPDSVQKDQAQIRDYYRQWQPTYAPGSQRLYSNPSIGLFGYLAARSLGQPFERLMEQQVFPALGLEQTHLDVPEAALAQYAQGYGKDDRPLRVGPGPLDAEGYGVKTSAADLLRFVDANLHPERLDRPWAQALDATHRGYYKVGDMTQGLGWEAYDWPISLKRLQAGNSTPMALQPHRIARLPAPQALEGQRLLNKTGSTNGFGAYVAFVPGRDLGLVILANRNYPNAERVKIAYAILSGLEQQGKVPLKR

Nc1nnc(SCc2ccc3c(c2C(=O)[O-])O[B-](O)(O)CC3)s1.[Na+].[Na+] [Compound 22, Disodium; 8-[(5-amino-1,3,4-thiadiazol-2-yl)sulfanylmethyl]-4,4-dihydroxy-5-oxa-4-boranuidabicyclo[4.4.0]deca-1(6),7,9-triene-7-carboxylate]
AZT MPC4 CMY-6 EC1010 [1]: X (X = MPC@4 ≤ 5 μg/mL) | MPM MPC8 AB1054 OXA-23 [2]: Y (Y = 5 μg/mL < MPC@1 ≤ 20 μg/mL) | AZT MPC4 KPC-2 KP1004 [3]: X (X = MPC@4 ≤ 5 μg/mL) | AZT MPC4 ECL1002 [4]: Y (Y = 5 μg/mL < MPC@4 ≤ 20 μg/mL) | AZT MPC4 TEM-10 ec302 [5]: X (X = MPC@4 ≤ 5 μg/mL) | AZT MPC4 CTX-M-15 KP1009 [6]: Y (Y = 5 μg/mL < MPC@4 ≤ 20 μg/mL) | AZT MPC4 SHV-5 ec308 [7]: Y (Y = 5 μg/mL < MPC@4 ≤ 20 μg/mL) | TIG MPC4 CTX-M-14 KP1005 [8]: Z (Z = MPC@4 > 20 μg/mL) | MPM MPC8 AB1053 OXA-72 [9]: Z (Z = MPC@1 > 20 μg/mL) | BPM MPC1 KP1004 KPC-2 [10]: X (X = MPC@1 ≤ 5 μg/mL) | BPM MPC1 OXA-48 KP1086 [11]: Y (Y = 5 μg/mL < MPC@1 ≤ 20 μg/mL) | AZT MPC4 SHV-12 KP1010 [12]: X (X = MPC@4 ≤ 5 μg/mL) | pKi [13]: > 7.00 | Ki (P99, NCF), uM [14]: X (key: X = Ki ≤ 0.1 μM; Y = 0.1 μM < Ki ≤ 1 μM; Z = Ki > 1 μM) | Ki (CTX-M-14, NCF), uM [15]: X (X = Ki ≤ 0.1 μM) | pKi [16]: > 7.00 | Ki (KPC-2, NCF), uM [17]: X (X = Ki ≤ 0.1 μM) | Ki (OXA-48, NCF), uM [18]: X (X = Ki ≤ 0.1 μM)

O=C([O-])c1cncc2c1O[B-](O)(O)CC2.[Na+].[Na+] [Compound 59, Disodium; 4,4-dihydroxy-5-oxa-9-aza-4-boranuidabicyclo[4.4.0]deca-1(6),7,9-triene-7-carboxylate]
AZT MPC4 CMY-6 EC1010 [1]: Y (Y = 5 μg/mL < MPC@4 ≤ 20 μg/mL) | MPM MPC8 AB1054 OXA-23 [2]: Z (Z = MPC@1 > 20 μg/mL) | AZT MPC4 KPC-2 KP1004 [3]: X (X = MPC@4 ≤ 5 μg/mL) | AZT MPC4 ECL1002 [4]: Z (Z = MPC@4 > 20 μg/mL) | AZT MPC4 TEM-10 ec302 [5]: X (X = MPC@4 ≤ 5 μg/mL) | AZT MPC4 CTX-M-15 KP1009 [6]: Y (Y = 5 μg/mL < MPC@4 ≤ 20 μg/mL) | AZT MPC4 SHV-5 ec308 [7]: Y (Y = 5 μg/mL < MPC@4 ≤ 20 μg/mL) | TIG MPC4 CTX-M-14 KP1005 [8]: Z (Z = MPC@4 > 20 μg/mL) | MPM MPC8 AB1053 OXA-72 [9]: Y (Y = 5 μg/mL < MPC@1 ≤ 20 μg/mL) | BPM MPC1 KP1004 KPC-2 [10]: X (X = MPC@1 ≤ 5 μg/mL) | BPM MPC1 OXA-48 KP1086 [11]: X (X = MPC@1 ≤ 5 μg/mL) | AZT MPC4 SHV-12 KP1010 [12]: X (X = MPC@4 ≤ 5 μg/mL) | pKi [13]: 6.00 to 7.00 | Ki (P99, NCF), uM [14]: Z (key: X = Ki ≤ 0.1 μM; Y = 0.1 μM < Ki ≤ 1 μM; Z = Ki > 1 μM) | Ki (CTX-M-14, NCF), uM [15]: X (X = Ki ≤ 0.1 μM) | pKi [16]: < 6.00 | Ki (KPC-2, NCF), uM [17]: X (X = Ki ≤ 0.1 μM) | Ki (OXA-48, NCF), uM [18]: X (X = Ki ≤ 0.1 μM)

O=C(O)c1c(F)c(F)cc2c1OB(O)CC2 [Compound 35, 6,7-Difluoro-2-hydroxy-3,4-dihydro-1,2-benzoxaborinine-8-carboxylic acid]
AZT MPC4 CMY-6 EC1010 [1]: X (X = MPC@4 ≤ 5 μg/mL) | MPM MPC8 AB1054 OXA-23 [2]: X (X = MPC@1 ≤ 5 μg/mL) | AZT MPC4 KPC-2 KP1004 [3]: X (X = MPC@4 ≤ 5 μg/mL) | AZT MPC4 ECL1002 [4]: X (X = MPC@4 ≤ 5 μg/mL) | AZT MPC4 TEM-10 ec302 [5]: X (X = MPC@4 ≤ 5 μg/mL) | AZT MPC4 CTX-M-15 KP1009 [6]: X (X = MPC@4 ≤ 5 μg/mL) | AZT MPC4 SHV-5 ec308 [7]: X (X = MPC@4 ≤ 5 μg/mL) | TIG MPC4 CTX-M-14 KP1005 [8]: Y (Y = 5 μg/mL < MPC@4 ≤ 20 μg/mL) | MPM MPC8 AB1053 OXA-72 [9]: X (X = MPC@1 ≤ 5 μg/mL) | BPM MPC1 KP1004 KPC-2 [10]: X (X = MPC@1 ≤ 5 μg/mL) | BPM MPC1 OXA-48 KP1086 [11]: X (X = MPC@1 ≤ 5 μg/mL) | AZT MPC4 SHV-12 KP1010 [12]: X (X = MPC@4 ≤ 5 μg/mL) | pKi ([13]; purified Pa-AmpC, nitrocefin (NCF) as reporter substrate, read-out: Ki (Pa-AmpC, NCF)): > 7.00 | Ki (P99, NCF), uM ([14]; purified P99, nitrocefin (NCF) as reporter substrate): X (X = Ki ≤ 0.1 μM) | Ki (CTX-M-14, NCF), uM [15]: X (X = Ki ≤ 0.1 μM) | pKi [16]: > 7.00 | Ki (KPC-2, NCF), uM [17]: X (X = Ki ≤ 0.1 μM) | Ki (OXA-48, NCF), uM [18]: X (X = Ki ≤ 0.1 μM)

From US10618918B2, “Substituted boronic acids as antimicrobials” (priority 2015, dated 2020)
